Columns and labels:
Assay type in all cases: functional
Mus musculus [1] = assay: Antiinflammatory activity against histamine-induced mouse edema model assessed as inflammation index 20 mg/kg, po (untreated control = 32.6+/-3.1%)
Mus musculus [2] = assay: Antiinflammatory activity against histamine-induced mouse edema model assessed as edema size 20 mg/kg, po (untreated control = 100%)
Mus musculus [3] = assay: Antiinflammatory activity against histamine-induced mouse edema model assessed as antiinflammatory effect 20 mg/kg, po (untreated control = 0%)
Mus musculus [4] = assay: Antiinflammatory activity against histamine-induced mouse edema model assessed as inflammation index 50 mg/kg, po (untreated control = 32.6+/-3.1%)
Mus musculus [5] = assay: Antiinflammatory activity against histamine-induced mouse edema model assessed as edema size 50 mg/kg, po (untreated control = 100%)
Mus musculus [6] = assay: Antiinflammatory activity against histamine-induced mouse edema model assessed as antiinflammatory effect 50 mg/kg, po (untreated control = 0%)
Mus musculus [7] = assay: Antioxidant activity agains CCl4-induced hepatitis mouse model assessed as TBARS level in serum at 20 mg/kg, po (untreated control = 100%)
Mus musculus [8] = assay: Antioxidant activity agains CCl4-induced hepatitis mouse model at 20 mg/kg, po (untreated control = 0%)

SMILES	Activity (Mus musculus [1]) [%]	level, % of control at 20 mg/kg (Mus musculus [2]) [%]	Activity (Mus musculus [3]) [%]	Activity (Mus musculus [4]) [%]	level, % of control at 50 mg/kg (Mus musculus [5]) [%]	Activity (Mus musculus [6]) [%]	Activity (Mus musculus [7]) [%]	Activity (Mus musculus [8]) [%]
C=C(C)[C@@H]1CC[C@]2(C(=O)Nc3ccc(-c4cn(CCCCCC)nn4)cc3)CC[C@]3(C)[C@H](CC[C@@H]4[C@@]5(C)CCC(=O)C(C)(C)[C@@H]5CC[C@]43C)[C@@H]12	29	89	11	28.4	87.1	13	66	34
C=C(C)[C@@H]1CC[C@]2(C(=O)Nc3ccc(-c4cn(Cc5ccccc5)nn4)cc3)CC[C@]3(C)[C@H](CC[C@@H]4[C@@]5(C)CCC(=O)C(C)(C)[C@@H]5CC[C@]43C)[C@@H]12	34.1	105	0	25.6	78.5	21	58	42
C=C(C)[C@@H]1CC[C@]2(C(=O)Nc3ccc(-c4cn(-c5ccc(C(C)=O)cc5)nn4)cc3)CC[C@]3(C)[C@H](CC[C@@H]4[C@@]5(C)CCC(=O)C(C)(C)[C@@H]5CC[C@]43C)[C@@H]12	35.4	109	0	24.2	74.2	26	40	60
C=C(C)[C@@H]1CC[C@]2(C(=O)Nc3ccc(-c4cn(-c5ccc(OC)cc5)nn4)cc3)CC[C@]3(C)[C@H](CC[C@@H]4[C@@]5(C)CCC(=O)C(C)(C)[C@@H]5CC[C@]43C)[C@@H]12	25.6	78.5	21	25.4	77.9	22	41	59
O=C1c2c(O)cc(O)cc2O[C@H](c2ccc(O)c(O)c2)[C@H]1O [(+)-TAXIFOLIN]							57	43
COc1ccc2c(c1)c(CC(=O)O)c(C)n2C(=O)c1ccc(Cl)cc1 [INDOMETHACIN]	12.2	37.4	63					
